Like-named read-outs stand apart in the source and are kept apart here.
System: 8XTBD luciferase reporter (YAP) in HEK293T cells
Test: YAP Reporter Assay
Type: cell-based
Details: Homo sapiens, HEK-293T, 24-hr incubation, top concentration 3 μM, read-out: Firefly Luciferase IC50
[1] = HEK293T cells stably transfected with 8XTBD luciferase reporter and pRLTK

Structure (SMILES) | IC50 [1] [nM] | IC50 ([…]) [nM]
CCNCCc1nnc(-c2ccccc2Nc2ccc(C(F)(F)F)cc2)o1 [Compound 94, 2-(5-(2-(ethylamino)ethyl)-1,3,4-oxadiazol-2-yl)-N-(4-(trifluoromethyl)phenyl)aniline] | 1000 to 5000 | –
CCN(C#N)CCc1nnc(-c2ccccc2Nc2ccc(C(F)(F)F)cc2)o1 [Compound 96, N-ethyl-N-(2-(5-(2-((4-(trifluoromethyl)phenyl)amino)phenyl)-1,3,4-oxadiazol-2-yl)ethyl)cyanamide] | < 100 | –
CC(C)NCc1nnc(-c2ccccc2Nc2ccc(C(F)(F)F)cc2)o1 [Compound 97, 2-(5-((isopropylamino)methyl)-1,3,4-oxadiazol-2-yl)-N-(4-(trifluoromethyl)phenyl)aniline] | 1000 to 5000 | –
CC(C)N(C#N)Cc1nnc(-c2ccccc2Nc2ccc(C(F)(F)F)cc2)o1 [Compound 99, N-isopropyl-N-((5-(2-((4-(trifluoromethyl)phenyl)amino)phenyl)-1,3,4-oxadiazol-2-yl)methyl)cyanamide] | 100 to 1000 | –
CCNCc1nnc(-c2ccccc2Nc2ccc(C(F)(F)F)cc2)o1 [Compound 100, 2-(5-((ethylamino)methyl)-1,3,4-oxadiazol-2-yl)-N-(4-(trifluoromethyl)phenyl)aniline] | 100 to 1000 | –
CCN(C#N)Cc1nnc(-c2ccccc2Nc2ccc(C(F)(F)F)cc2)o1 [Compound 102, N-ethyl-N-((5-(2-((4-(trifluoromethyl)phenyl)amino)phenyl)-1,3,4-oxadiazol-2-yl)methyl)cyanamide] | < 100 | –
CC(C)(C(=O)O)c1nnc(-c2ccccc2Nc2ccc(C(F)(F)F)cc2)o1 [Compound 103, 2-methyl-2-(5-(2-((4-(trifluoromethyl)phenyl)amino)phenyl)-1,3,4-oxadiazol-2-yl)propanoic Acid] | 100 to 1000 | –
NCCc1nnc(-c2ccccc2Nc2ccc(C(F)(F)F)cc2)o1 [Compound 104, 2-(5-(2-aminoethyl)-1,3,4-oxadiazol-2-yl)-N-(4-(trifluoromethyl)phenyl)aniline] | 1000 to 5000 | –
C=CC(=O)NCc1nnc(-c2ccccc2Nc2ccc(C(F)(F)F)cc2)o1 [Compound 108, N-((5-(2-((4-(trifluoromethyl)phenyl)amino)phenyl)-1,3,4-oxadiazol-2-yl)methyl)acrylamide] | < 100 | –
CC(C)(C(=O)NCC#N)c1nnc(-c2ccccc2Nc2ccc(C(F)(F)F)cc2)o1 [Compound 110, N-(cyanomethyl)-2-methyl-2-(5-(2-((4-(trifluoromethyl)phenyl)amino)phenyl)-1,3,4-oxadiazol-2-yl)propanamide] | – | 1000 to 5000
C#CCNC(=O)C(C)(C)c1nnc(-c2ccccc2Nc2ccc(C(F)(F)F)cc2)o1 [Compound 112, 2-methyl-N-(prop-2-yn-1-yl)-2-(5-(2-((4-(trifluoromethyl)phenyl)amino)phenyl)-1,3,4-oxadiazol-2-yl)propanamide] | – | 1000 to 5000
N#CCCNC(=O)c1nnc(-c2ccccc2Nc2ccc(C(F)(F)F)cc2)o1 [Compound 113, N-(2-cyanoethyl)-5-(2-((4-(trifluoromethyl)phenyl)amino)phenyl)-1,3,4-oxadiazole-2-carboxamide] | – | < 100
N#CCNC(=O)c1nnc(-c2ccccc2Nc2ccc(C(F)(F)F)cc2)o1 [Compound 114, N-(cyanomethyl)-5-(2-((4-(trifluoromethyl)phenyl)amino)phenyl)-1,3,4-oxadiazole-2-carboxamide] | < 100 | –
C#CCCNC(=O)c1nnc(-c2ccccc2Nc2ccc(C(F)(F)F)cc2)o1 [Compound 115, N-(but-3-yn-1-yl)-5-(2-((4-(trifluoromethyl)phenyl)amino)phenyl)-1,3,4-oxadiazole-2-carboxamide] | < 100 | –
C#CCNC(=O)c1nnc(-c2ccccc2Nc2ccc(C(F)(F)F)cc2)o1 [Compound 116, N-(prop-2-yn-1-yl)-5-(2-((4-(trifluoromethyl)phenyl)amino)phenyl)-1,3,4-oxadiazole-2-carboxamide] | < 100 | –
C/C=C/c1nnc(-c2ccccc2Nc2ccc(C(F)(F)F)cc2)o1 [Compound 117, (E)-2-(5-(prop-1-en-1-yl)-1,3,4-oxadiazol-2-yl)-N-(4-(trifluoromethyl)phenyl)aniline] | 100 to 1000 | –
O=C(O)Cc1nnc(-c2ccccc2Nc2ccc(C(F)(F)F)cc2)o1 [Compound 119, 2-(5-(2-((4-(trifluoromethyl)phenyl)amino)phenyl)-1,3,4-oxadiazol-2-yl)acetic acid] | 100 to 1000 | –
C#CC(O)Cc1nnc(-c2ccccc2Nc2ccc(C(F)(F)F)cc2)o1 (stereo not drawn) [Compound 120, 1-(5-(2-((4-(trifluoromethyl)phenyl)amino)phenyl)-1,3,4-oxadiazol-2-yl)but-3-yn-2-ol] | < 100 | –
OC(CBr)c1nnc(-c2ccccc2Nc2ccc(C(F)(F)F)cc2)o1 (stereo not drawn) [Compound 121, 2-bromo-1-(5-(2-((4-(trifluoromethyl)phenyl)amino)phenyl)-1,3,4-oxadiazol-2-yl)ethan-1-ol] | < 100 | –
FC(F)(F)c1ccc(Nc2ccccc2-c2nnc(C3CO3)o2)cc1 (stereo not drawn) [Compound 122, 2-(5-(oxiran-2-yl)-1,3,4-oxadiazol-2-yl)-N-(4-(trifluoromethyl)phenyl)aniline] | < 100 | –

Structure (SMILES) | IC50 [1] [nM] | IC50 ([…]) [nM]
C=Cc1nnc(-c2ccccc2Nc2ccc(C(F)(F)F)cc2)o1 [Compound 123, N-(4-(trifluoromethyl)phenyl)-2-(5-vinyl-1,3,4-oxadiazol-2-yl)aniline] | < 100 | –
C#CCC(O)c1nnc(-c2ccccc2Nc2ccc(C(F)(F)F)cc2)o1 (stereo not drawn) [Compound 124, 1-(5-(2-((4-(trifluoromethyl)phenyl)amino)phenyl)-1,3,4-oxadiazol-2-yl)but-3-yn-1-ol] | < 100 | –
N#CCCc1nnc(-c2ccccc2Nc2ccc(C(F)(F)F)cc2)o1 [Compound 126, 3-(5-(2-((4-(trifluoromethyl)phenyl)amino)phenyl)-1,3,4-oxadiazol-2-yl)propanenitrile] | 100 to 1000 | –
CN(C#N)CCCc1nnc(-c2ccccc2Nc2ccc(C(F)(F)F)cc2)o1 [Compound 129, N-methyl-N-(3-(5-(2-((4-(trifluoromethyl)phenyl)amino)phenyl)-1,3,4-oxadiazol-2-yl)propyl)cyanamide] | < 100 | –
CC(O)(CC#N)c1nnc(-c2ccccc2Nc2ccc(C(F)(F)F)cc2)o1 (stereo not drawn) [Compound 130, 3-hydroxy-3-(5-(2-((4-(trifluoromethyl)phenyl)amino)phenyl)-1,3,4-oxadiazol-2-yl)butanenitrile] | < 100 | –
CC1(c2nnc(-c3ccccc3Nc3ccc(C(F)(F)F)cc3)o2)CO1 (stereo not drawn) [Compound 132, 2-(5-(2-methyloxiran-2-yl)-1,3,4-oxadiazol-2-yl)-N-(4-(trifluoromethyl)phenyl)aniline] | < 100 | –
C=C(C)c1nnc(-c2ccccc2Nc2ccc(C(F)(F)F)cc2)o1 [Compound 133, 2-(5-(prop-1-en-2-yl)-1,3,4-oxadiazol-2-yl)-N-(4-(trifluoromethyl)phenyl)aniline] | 100 to 1000 | –
CC(O)(CN)c1nnc(-c2ccccc2Nc2ccc(C(F)(F)F)cc2)o1 (stereo not drawn) [Compound 134, 1-amino-2-(5-(2-((4-(trifluoromethyl)phenyl)amino)phenyl)-1,3,4-oxadiazol-2-yl)propan-2-ol] | 100 to 1000 | –
CCC(C)(O)c1nnc(-c2ccccc2Nc2ccc(C(F)(F)F)cc2)o1 (stereo not drawn) [Compound 135, 2-(5-(2-((4-(trifluoromethyl)phenyl)amino)phenyl)-1,3,4-oxadiazol-2-yl)butan-2-ol] | < 100 | –
NC1(Cc2nnc(-c3ccccc3Nc3ccc(C(F)(F)F)cc3)o2)CC1 [Compound 136, 2-(5-((1-aminocyclopropyl)methyl)-1,3,4-oxadiazol-2-yl)-N-(4-(trifluoromethyl)phenyl)aniline] | 100 to 1000 | –
N#CCc1nnc(-c2ccccc2Nc2ccc(C(F)(F)F)cc2)o1 [Compound 137, 2-(5-(2-((4-(trifluoromethyl)phenyl)amino)phenyl)-1,3,4-oxadiazol-2-yl)acetonitrile] | 100 to 1000 | –
CN(C#N)CC1(c2nnc(-c3ccccc3Nc3ccc(C(F)(F)F)cc3)o2)CC1 [Compound 140, N-methyl-N-((1-(5-(2-((4-(trifluoromethyl)phenyl)amino)phenyl)-1,3,4-oxadiazol-2-yl)cyclopropyl)methyl)cyanamide] | < 100 | –
CN(C#N)C(C)(C)Cc1nnc(-c2ccccc2Nc2ccc(C(F)(F)F)cc2)o1 [Compound 143, N-methyl-N-(2-methyl-1-(5-(2-((4-(trifluoromethyl)phenyl)amino)phenyl)-1,3,4-oxadiazol-2-yl)propan-2-yl)cyanamide] | 1000 to 5000 | –
CNCC(C)(C)c1nnc(-c2ccccc2Nc2ccc(C(F)(F)F)cc2)o1 [Compound 144, 2-(5-(2-methyl-1-(methylamino)propan-2-yl)-1,3,4-oxadiazol-2-yl)-N-(4-(trifluoromethyl)phenyl)aniline] | 100 to 1000 | –
CN(C#N)CC(C)(C)c1nnc(-c2ccccc2Nc2ccc(C(F)(F)F)cc2)o1 [Compound 146, N-methyl-N-(2-methyl-2-(5-(2-((4-(trifluoromethyl)phenyl)amino)phenyl)-1,3,4-oxadiazol-2-yl)propyl)cyanamide] | < 100 | –
CNC(C)Cc1nnc(-c2ccccc2Nc2ccc(C(F)(F)F)cc2)o1 (stereo not drawn) [Compound 147, 2-(5-(2-(methylamino)propyl)-1,3,4-oxadiazol-2-yl)-N-(4-(trifluoromethyl)phenyl)aniline] | 1000 to 5000 | –
CC(Cc1nnc(-c2ccccc2Nc2ccc(C(F)(F)F)cc2)o1)N(C)C#N (stereo not drawn) [Compound 149, N-methyl-N-(1-(5-(2-((4-(trifluoromethyl)phenyl)amino)phenyl)-1,3,4-oxadiazol-2-yl)propan-2-yl)cyanamide] | < 100 | –
CNCC(C)c1nnc(-c2ccccc2Nc2ccc(C(F)(F)F)cc2)o1 (stereo not drawn) [Compound 150, 2-(5-(1-(methylamino)propan-2-yl)-1,3,4-oxadiazol-2-yl)-N-(4-(trifluoromethyl)phenyl)aniline] | 100 to 1000 | –
CC(CN(C)C#N)c1nnc(-c2ccccc2Nc2ccc(C(F)(F)F)cc2)o1 (stereo not drawn) [Compound 152, N-methyl-N-(2-(5-(2-((4-(trifluoromethyl)phenyl)amino)phenyl)-1,3,4-oxadiazol-2-yl)propyl)cyanamide] | < 100 | –

Source: patent US11661403B2, “Oxadiazole compounds” (Vivace Therapeutics, Inc., priority 2018, dated 2023)
